Laboratory results as given in patent publication US20240325369A1 (priority 2021, published 2024).
Where “and” joins values, the source holds several entries; their conditions need not be identical. Identical values can stand only once. Like-named read-outs stand apart in the source and are kept apart here.

Tested on: metastatic castration-resistant prostate cancer (mCRPC) with DNA-repair anomalies
Protocol: The planned sample size was approximately 120 subjects with measurable disease who were biomarker-positive (approximately 75 subjects with DNA repair anomalies in BRCA [BRCA1 or BRCA2] and approximately 45 subjects with biallelic DNA-repair anomalies in non-BRCA [ATM, FANCA, PALB2, CHEK2, BRIP1, or HDAC2]).
Efficacy objectives were evaluated for subjects meeting the biomarker selection criteria described in the protocol. All subjects were monitored for safety during the study period, and up to 30 days after the last dose of study drug. Treatment continued until disease progression, unacceptable toxicity, death, or termination of the study by the sponsor.
Diagnosis and Main Criteria for Inclusion: The target population consisted of male subjects over the age of 18 years with mCRPC and DNA-repair anomalies (biallelic mutations and germline pathogenic mutations only for BRCA1 or BRCA2 mutations) who had received at least 1 prior taxane-based chemotherapy and at least 1 prior AR targeted therapy (second-generation or later). Subjects were asked to provide a tumor tissue sample (archival or recently collected, if available), and a blood sample for analysis of DNA-repair anomalies using a sponsor-validated assay.
Criteria for Evaluation: Efficacy assessments included chest, abdomen, and pelvis CT or MRI scans and whole-body bone scans (^99mTc) to evaluate objective response and disease progression.
The primary endpoint was ORR and summarized for the BRCA analysis set along with the 95% 2-sided exact CI. In addition, the counts and percentage of subjects in each response category (CR. PR, etc.) were tabulated. ORR in non-BRCA subjects was analyzed in the same way.
Descriptive summaries of CTC response were generated for BRCA and non-BRCA analysis sets, measurable and non-measurable subgroups and tabulated with its 2-sided 95% exact CI. Waterfall plots of percent change in CTC were also presented, showing the percentage change in CTC counts from baseline to 8 weeks, as well as maximal CTC count declines. All time to event secondary endpoints were evaluated using Kaplan-Meier method for BRCA and non-BRCA analysis sets. Median time to event and the corresponding 95% CI were provided. Descriptive summaries were provided for BRCA and non-BRCA analysis sets.
Time to degradation was determined using the following meaningful change threshold values: FACT-P Total (10-point reduction from baseline), EQ-5D-5L Index (0.09-point reduction from baseline). EQ-5D-5L VAS (10-point reduction from baseline), and BPI SF worst pain intensity item (30% reduction from baseline).
The primary endpoint was ORR, defined as the proportion of subjects with BRCA DNA-repair anomalies and measurable disease whose best response was either CR or PR as defined by RECIST 1.1 (Eisenhauer et al 2009) and who had no evidence of bone progression according to the PCWG3 criteria (Scher et al 2016).
ORR final analysis was performed approximately 6 months from Cycle 1 Day 1 of the last subject with a BRCA DNA-repair anomaly and measurable disease. Objective response as determined by investigator assessment was considered as the primary analysis.
Subjects who discontinued the study without a response assessment were considered as non-responders in the analysis. The objective response rate was calculated and its 2-sided 95% exact CI presented. In addition, the counts and percentage of subjects in each response category (CR, PR, etc.) were tabulated.
The following analyses of CTC response were performed for BRCA and non-BRCA analysis sets, measurable and non-measurable subgroups: • Descriptive summaries • CTC response rate was tabulated with its 2-sided 95% exact CI
All time to event secondary endpoints were evaluated using Kaplan-Meier method for BRCA and non-BRCA analysis sets. Median time to event and the corresponding 95% CI were provided. Descriptive summaries were provided for BRCA and non-BRCA analysis sets.

[1] = ALL, ITT (N=223), 300 mg once daily
[2] = ALL, ITT (N=223), 300 mg once daily, listed as niraparib
[3] = ALL, ITT (N=223), Kaplan-Meier, 300 mg once daily
[4] = ALL, ITT with baseline CTC >0 (N=202), 300 mg once daily
[5] = ALL, measurable ITT (N=123), 300 mg once daily
[6] = ALL, measurable ITT responders (N=31), 300 mg once daily
[7] = ALL, measurable ITT responders (N=31), Kaplan-Meier, 300 mg once daily
[8] = BRCA (n = 142), 300 mg once daily
[9] = BRCA, ITT (N=142), 300 mg once daily
[10] = BRCA, ITT (N=142), 300 mg once daily, listed as niraparib
[11] = BRCA, ITT (N=142), Kaplan-Meier, 300 mg once daily

## NC(=O)c1cccc2cn(-c3ccc([C@@H]4CCCNC4)cc3)nc12 [Niraparib, 2-[4-[(3S)-piperidin-3-yl]phenyl]-2H-indazole-7-carboxamide]
2 BRCA subjects with measurable disease and complete response, 300 mg once daily
  Duration of complete response in individual subjects: 9.7 months and 9.5 months
[1]
  Time to PSA progression: 6-month event-free rate: 0.328
  Time to PSA progression: 12-month event-free rate: 0.053
  Time to PSA progression: Censored, % of subjects: (44.4%)
  Time to PSA progression: Censored, number of subjects: 99
  Time to PSA progression: Event, % of subjects: (55.6%)
  Time to PSA progression: Event, number of subjects: 124
  Time to radiographic progression: 6-month event-free rate: 0.494
  Time to radiographic progression: 12-month event-free rate: 0.170
  Time to radiographic progression: 18-month event-free rate: 0.034
  Time to radiographic progression: Censored, % of subjects: (39.9%)
  Time to radiographic progression: Censored, number of subjects: 89
  Time to radiographic progression: Event, % of subjects: (60.1%)
  Time to radiographic progression: Event, number of subjects: 134
  Time to symptomatic skeletal event: 6-month event-free rate: 0.830
  Time to symptomatic skeletal event: 12-month event-free rate: 0.511
  Time to symptomatic skeletal event: 18-month event-free rate: 0.297
  Time to symptomatic skeletal event: 24-month event-free rate: 0.297
  Time to symptomatic skeletal event: Censored, % of subjects: (70.9%)
  Time to symptomatic skeletal event: Censored, number of subjects: 158
  Time to symptomatic skeletal event: Event, % of subjects: (29.1%)
  Time to symptomatic skeletal event: Event, number of subjects: 65
  rPFS: 6-month event-free rate: 0.475
  rPFS: 12-month event-free rate: 0.155
  rPFS: 18-month event-free rate: 0.031
  rPFS: Censored, % of subjects: (35.4%)
  rPFS: Censored, number of subjects: 79
  rPFS: Event, % of subjects: (64.6%)
  rPFS: Event, number of subjects: 144
[2]
  Time to PSA progression: Event, % of subjects: 56%
  Time to radiographic progression: Event, % of subjects: 60%
  Time to symptomatic skeletal event: Event, % of subjects: 29%
  Time to symptomatic skeletal event: Event, number of subjects: Sixty-five
  rPFS: Event, % of subjects: 65%
[3]
  Time to PSA progression: time to event, 25th percentile: 2.83 months
  Time to PSA progression: time to event, Median: 4.63 months
  Time to radiographic progression: time to event, 25th percentile: 2.76 months
  Time to radiographic progression: time to event, 75th percentile: 11.07 months
  Time to radiographic progression: time to event, Median: 5.78 months
  Time to symptomatic skeletal event (SSE): time to event, Median: 12.88 months
  Time to symptomatic skeletal event: time to event, 25th percentile: 6.97 months
  rPFS: time to event, 25th percentile: 2.07 months
  rPFS: time to event, 75th percentile: 11.01 months
[4]
  CTC Response (CTC = 0 at week 8), % of subjects: (18.3%)
  CTC Response (CTC = 0 at week 8), number of subjects: 37
[5]
  Best Overall Response: Complete Response (CR), % of subjects: 1.6%
  Best Overall Response: Complete Response (CR), number of subjects: 2
  Best Overall Response: Not Available (NA), % of subjects: 12.2%
  Best Overall Response: Not Available (NA), number of subjects: 15
  Best Overall Response: Partial Response (PR), % of subjects: 23.6%
  Best Overall Response: Partial Response (PR), number of subjects: 29
  Best Overall Response: Progressive Disease (PD), % of subjects: 25.2%
  Best Overall Response: Progressive Disease (PD), number of subjects: 31
  Best Overall Response: Stable Disease (SD), % of subjects: 37.4%
  Best Overall Response: Stable Disease (SD), number of subjects: 46
  ORR (objective response rate, RECIST 1.1, no bone progression per PCWG3), % of subjects: 25.2%
  ORR (objective response rate, RECIST 1.1, no bone progression per PCWG3), number of subjects: 31
  Objective response confirmed: Complete Response (CR), % of subjects: 1.6%
  Objective response confirmed: Complete Response (CR), number of subjects: 2
  Objective response confirmed: Partial Response (PR), % of subjects: 23.6%
  Objective response confirmed: Partial Response (PR), number of subjects: 29
[6]
  Duration of objective response: 6-month event-free rate: 0.471
  Duration of objective response: 12-month event-free rate: 0.000
  Duration of objective response: 18-month event-free rate: 0.000
  Duration of objective response: 24-month event-free rate: 0.000
  Duration of objective response: Censored, % of subjects: (22.6%)
  Duration of objective response: Censored, number of subjects: 7
  Duration of objective response: Event, % of subjects: (77.4%)
  Duration of objective response: Event, number of subjects: 24
[7]
  Duration of objective response: time to event, 25th percentile: 3.75 months
  Duration of objective response: time to event, 75th percentile: 7.20 months
  Duration of objective response: time to event, Median: 5.55 months
[8]
  CRR (composite response rate), % of subjects: 57.7%
  CRR (composite response rate), number of subjects: 82
  PSA50 (≥50% decline in prostate-specific antigen), % of subjects: 43.0%
  PSA50 (≥50% decline in prostate-specific antigen), number of subjects: 61
BRCA vs non-BRCA cohort
  Median rPFS in the BRCA cohort relative to the non-BRCA cohort: approximately double
[9]
  Time to PSA progression: 6-month event-free rate: 0.393
  Time to PSA progression: 12-month event-free rate: 0.067
  Time to PSA progression: Censored, % of subjects: (40.1%)
  Time to PSA progression: Event, % of subjects: (59.9%)
  Time to radiographic progression: 6-month event-free rate: 0.593
  Time to radiographic progression: 12-month event-free rate: 0.234
  Time to radiographic progression: 18-month event-free rate: 0.046
  Time to radiographic progression: Censored, % of subjects: (43.0%)
  Time to radiographic progression: Censored, number of subjects: 61
  Time to radiographic progression: Event, % of subjects: (57.0%)
  Time to radiographic progression: Event, number of subjects: 81
  Time to symptomatic skeletal event: 6-month event-free rate: 0.844
  Time to symptomatic skeletal event: 12-month event-free rate: 0.543
  Time to symptomatic skeletal event: 18-month event-free rate: 0.323
  Time to symptomatic skeletal event: 24-month event-free rate: 0.323
  Time to symptomatic skeletal event: Censored, % of subjects: (67.6%)
  Time to symptomatic skeletal event: Censored, number of subjects: 96
  Time to symptomatic skeletal event: Event, % of subjects: (32.4%)
  rPFS: 6-month event-free rate: 0.572
  rPFS: 12-month event-free rate: 0.215
  rPFS: 18-month event-free rate: 0.043
  rPFS: Censored, % of subjects: (38.7%)
  rPFS: Censored, number of subjects: 55
  rPFS: Event, % of subjects: (61.3%)
  rPFS: Event, number of subjects: 87
[10]
  Time to PSA progression: Event, % of subjects: 60%
  rPFS: Event, % of subjects: 61%
[11]
  Time to PSA progression: time to event, 25th percentile: 3.48 months
  Time to PSA progression: time to event, 75th percentile: 11.07 months
